# Assay results from the METLIN SMRT retention time set (Domingo-Almenara et al. 2019).
# Assay: gradient 5% acetonitrile 3 min, to 50% in 2 min, to 85% in 15 min, held 3 min, 100 µL/min
# Settings: column: Zorbax Extend-C18 2.1 x 50 mm; eluents: water / acetonitrile, 0.1% formic acid
# Procedure, shortened: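 The mobile phases were water and acetonitrile, each with 0.1% formic acid, pumped at 100 μL/min through a Zorbax Extend-C18 column (2.1 × 50 mm, 1.8 μm). Pure standards were injected as mixtures of ~100 molecules and detected by a quadrupole time-of-flight mass spectrometer in positive and negative ionization mode. Retention time came from computationally picked adduct peaks, each inspected by hand.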
row,Compound,RP-LC retention time
1,CC(C)C(=O)Nc1cccnc1,583 s
2,COc1cccc(NC(=O)C2CCN(Cc3cnn(-c4ccccc4)c3-n3cccc3)CC2)c1,723 s
3,CC1CC(=O)Nc2cc(S(=O)(=O)N3CCN(c4ncccn4)CC3)ccc2S1 (stereo not given),803 s
4,COC(=O)c1ncn2c1C(=O)N(c1cccc(C)c1C)C(C)(C(=O)NC1CCCC1)C2 (stereo not given),734 s
5,Cn1nc(N2CCCC(NC(=O)c3cc4cc(Cl)ccc4[nH]3)C2)ccc1=O (stereo not given),827 s
6,O=C(Nc1ccccn1)C1CCCN(c2ncnc3c2nc2n3CCCCC2)C1 (stereo not given),675 s
7,CCC(C)NC(=O)CSc1cc(N2CCN(c3ccc(OC)cc3)CC2)ncn1 (stereo not given),775 s
8,CCc1ccc(NC(=O)Cc2nc(C)c(C(=O)NCC(C)C)s2)cc1,868 s
9,CCn1cc(S(=O)(=O)NCc2cc(F)cc(F)c2)c2cccnc21,828 s
10,CCc1noc(C2CCCCN2CC(=O)NCCc2cccs2)n1 (stereo not given),794 s
11,COc1ccc(C(=O)NC2CCN(c3nnc4ccc(C(F)(F)F)cn34)CC2)cc1,751 s
12,Cc1ccc(C)c(CNC(=O)C2CCN(CCc3cn(C)c4ncccc34)CC2)c1,639 s
13,CCN(CC)C(=O)c1ccc2c(c1)N(CC(=O)NCc1ccco1)C(=O)C1CCCCN21 (stereo not given),783 s
14,COCCNC(=O)C1CCCN(C(=O)c2[nH]c(C)c(C(=O)OC)c2C)C1 (stereo not given),624 s
15,Cc1c(S(=O)(=O)NCc2ccc3c(c2)CCN3C(=O)C(C)C)cnn1C(F)F,801 s
16,Nc1cc(C2CCN(C(=O)c3ccccc3F)CC2)no1,648 s
17,CN(C)C(=O)C1CCN(S(=O)(=O)Cc2ccc(Cl)cc2)CC1,746 s
18,CCOC(=O)C1=C(C)NC2=C(C(=O)CC(C)(C)C2)C1c1ccc([N+](=O)[O-])cc1 (stereo not given),832 s
19,CCOC(=O)N1CCN(C(=O)c2cccc(-n3cnnn3)c2)CC1,619 s
20,O=C(Nc1cc2c3c(c1)CCC(=O)N3CCC2)C(=O)Nc1ccc2c(c1)OCO2,747 s

row,Compound,RP-LC retention time
1,O=C1C(=O)N(C2CCN(C(=O)c3ccc(Br)o3)CC2)CCN1Cc1ccccc1,706 s
2,Nc1n[nH]c(-c2ccccc2)n1,619 s
3,CCC(=Cc1ccc(CC)cn1)CC,686 s
4,Cc1cccc(C(=O)N2CCc3nc[nH]c3C2)c1,569 s
5,CCNC(=O)Nc1cccnc1N1CCCCC1,577 s
6,O=C(C1=CN(c2ccc(Cl)cc2)c2ccccc2S1(=O)=O)N1CCCC1,827 s
7,CC(C)NC(=O)c1ccc(OCC2CCN(C(=O)c3ccc(F)c(F)c3)CC2)cc1,873 s
8,COCCN1CCC(N2CCCN(C(=O)NCCc3ccccc3)CC2)C1=O (stereo not given),526 s
9,Cn1nnnc1NCc1ccc2c(c1)n(C)c(=O)n2C,597 s
10,CCNc1cc(N2CCC(CCC(=O)NCc3ccc(Cl)cc3)CC2)ncn1,585 s
11,CC(C)CN1CCn2cc(S(=O)(=O)NCc3ccccc3Cl)cc2C1=O,818 s
12,O=C(NCc1ccccc1)C1CC(=O)N(C2CN(Cc3ccc(C(F)(F)F)cc3)C2)C1 (stereo not given),666 s
13,CCOc1ccc(CCNC(=O)c2cc(S(=O)(=O)N3CCCCC3)c(C)n2C)cc1OCC,1010 s
14,O=C(NCCc1c[nH]c2ccccc12)C(=O)NCc1cccs1,783 s
15,Cc1cn(C2CC(O)C(CO)O2)c(=O)n(Cc2ccccc2)c1=O (stereo not given),697 s
16,Cc1c(C(=O)NCc2c(F)cccc2F)c(C(F)(F)F)nn1C(C)C,867 s
17,COc1ccc(OC)c(NC(=O)N2CCCC(Cn3cnc4cccnc43)C2)c1 (stereo not given),682 s
18,Cc1cccc(OCC(=O)N2CC(CN(C)C)C3(CCOCC3)C2)c1 (stereo not given),598 s
19,Cc1cccc2nnc(N3CCC(C(=O)NCc4ccc(N5CCCCC5)cc4)CC3)n12,558 s
20,CCNC(=O)N1CC(c2nc(-c3cccnc3)no2)C2(CCOCC2)C1 (stereo not given),597 s

row,Compound,RP-LC retention time
1,Cc1ccc(C)c(N2CCN(C(=O)c3cn4c(n3)CCCC4)CC2)c1,689 s
2,CCCCNC(=O)Cn1c(N)nc(CC)cc1=O,579 s
3,CCOC(=O)c1c(S(=O)(=O)N2CCC(C(=O)Nc3ccccc3)CC2)c(C)n(C)c1C,834 s
4,CCCCOC(=O)c1ccc(NC(=O)c2c(OCC)cc(=O)n3c2CCCC3)cc1,910 s
5,CC(=O)Nc1ccc(S(=O)(=O)N2CCN(c3cnn4c(C)nnc4c3)CC2)cc1,593 s
6,Cc1cc2[nH]c(C(=O)Nc3cc(F)c(F)cc3F)c(CN(C)C)c2s1,664 s
7,COc1cc(/C=C(\C)c2ccc3c(c2)OCO3)cc(OC)c1OC,1030 s
8,COc1ccccc1CCN1CC(=O)N(c2ccc(C)c(C)c2)[C@@H]2CS(=O)(=O)C[C@@H]21,897 s
9,CCCCNC(=O)C1CCN(C(=O)c2cc3ccsc3n2Cc2ccc(Cl)cc2)CC1,1010 s
10,COc1ccc(-c2cc3n(n2)CCCN(S(=O)(=O)c2ccc(NC(C)=O)cc2)C3)cc1,779 s
11,Cc1sc(-c2cc(C(F)(F)F)on2)cc1S(=O)(=O)N1CCN(c2ccccc2)CC1,1300 s
12,Cc1cccc(S(=O)(=O)Nc2ccc3c(c2)CCC(=O)N3)c1,689 s
13,CCN(CC)CCCC(C)NC(=O)c1ccc2c(c1)C(=O)c1ccccc1C2=O (stereo not given),671 s
14,Cc1ccccc1-c1csc2c(=O)n(CC(=O)OC(C)(C)C)cnc12,1060 s
15,CC(=O)c1ccc(NC(=O)CCSc2ccc(Cl)cc2)cc1,887 s
16,Cn1c(N2CCCC(C(=O)NCCN3CCN(c4ccccc4)CC3)C2)cc(=O)n(C)c1=O (stereo not given),589 s
17,Cc1noc(C)c1S(=O)(=O)N[C@@H]1CN(Cc2ccccc2)C[C@H]1CN(C)C,570 s
18,CCN(CC)CCNC(=O)C1CCN(c2ccc(-c3cccs3)nn2)CC1,556 s

# More lines, now with the values ahead:
row,RP-LC retention time,Compound
1,805 s,CCCNC(=O)CCc1nc2ccccc2n(CC(=O)Nc2ccc(OC)c(Cl)c2)c1=O
2,996 s,Cc1cccc(-c2noc(Cn3cnc4c(oc5ccccc54)c3=O)n2)c1
3,715 s,Cc1cc(C)n2nc(CN(C(=O)c3ccco3)c3ccc(F)cc3)nc2n1
4,905 s,Cc1ccccc1CN1C(=O)CN(S(=O)(=O)c2ccccc2)CC1(C)C(=O)NCc1ccccc1 (stereo not given)
5,802 s,CC1=C(c2ccc(F)cc2)S(=O)(=O)N=C1N1CCCN(C(=O)c2ccsc2)CC1
6,777 s,Cc1ccccc1CNC(=O)C1CCN(S(=O)(=O)c2ccc3c(c2)NC(=O)CO3)CC1
7,840 s,COc1ccc(Cl)cc1NC(=O)COc1nc(C)nc2ccccc12
8,593 s,COc1ccc(OCC(=O)N2CCN(c3cc(C)n4cnnc4n3)CC2)cc1
9,1240 s,CCc1ccc(S(=O)(=O)N2CCC(c3noc(-c4cccc(OC)c4)n3)CC2)cc1
10,1010 s,Cn1cc(-c2nc(C(=O)NCc3ccc(F)cc3Cl)cs2)c2cccnc21
11,614 s,CCc1nnc(-c2ccc3ccn(CC(=O)N4CCN(c5ccccn5)CC4)c3c2)o1
12,611 s,Cc1cc(CN2CCc3nn(Cc4ccccc4)c(=O)n3CC2)n(C)n1
13,762 s,COc1cccc(C(=O)N2CCC3(CC2)NC(=O)c2cc(F)ccc2N3C)c1
14,996 s,CCc1ccc(NS(=O)(=O)c2ccc(-c3c(C)noc3C)cc2)cc1
15,596 s,Cc1ccc(C)c(NC(=O)Cn2c(N)nc(C)cc2=O)c1
16,723 s,Cc1cc(NCC2CCCO2)n2nc(-c3ccc(Cl)cc3)c(C)c2n1 (stereo not given)

row,RP-LC retention time,Compound
1,947 s,O=c1c2cnc3nc(-c4ccccc4Cl)nn3c2ccn1CCc1c[nH]c2ccc(F)cc12
2,1090 s,Cc1cccc(N2C(=O)N(Cc3cccc(F)c3)S(=O)(=O)c3cccnc32)c1
3,694 s,Oc1ccc(-c2ccc(F)cc2)cc1CN1CCCCCC1
4,1030 s,O=c1c2sccc2n(Cc2nc(-c3ccc(F)cc3)no2)c(=O)n1Cc1ccccc1
5,709 s,Cc1nc(OCC(=O)Nc2ccc(F)cc2)c2ccccc2n1
6,893 s,CCOC(=O)c1nc(N2CCN(c3ccccc3)CC2)c2ccccc2n1
7,843 s,COc1cccc(NC(=O)N2CCCC2c2nc(-c3ccccc3OC)no2)c1 (stereo not given)
8,773 s,CC(C)C(=O)Nc1ccc(-n2cnc(C(=O)NCc3ccc(F)cc3F)c2)nc1
9,904 s,Cc1cc2c(c(=O)n(-c3ccccc3)c(=O)n2CC(=O)Nc2cccc(C(F)(F)F)c2)n1C
10,842 s,Cc1cccc(-c2noc(Cc3nnc(-c4cc(C)cc(C)c4)o3)n2)c1
11,775 s,O=C(Nc1ccc(Br)cc1)C1CCCN(c2ccnc(-c3ccc(F)cc3)n2)C1 (stereo not given)
12,635 s,CCn1cc(CN2CC(Oc3ccc(-c4noc(-c5cccnc5)n4)cc3)C2)cn1
13,1320 s,Cc1ccc(N(C)S(=O)(=O)c2cc(-c3cc(C(F)(F)F)on3)sc2C)cc1
14,1140 s,CCc1nc2cc(-c3noc(-c4ccc(CS(=O)(=O)c5ccccc5)cc4)n3)ccc2o1
15,1020 s,O=C(N1CCC(Cc2nc(-c3ccc(F)cc3)no2)CC1)C1(c2ccccc2)CC1
16,646 s,Cn1c(=O)c(=O)n(CC(=O)NCCc2ccco2)c2cccnc21
